{
  "source": "patent US11419913B2",
  "about": "“Pharmaceutical compositions for inhibiting inflammatory cytokines” (S.I.S. SHULOV INNOVATIVE SCIENCE LTD., priority 2018, dated 2022)",
  "key": {"B6 Macrophage cells": {"tested_on": "B6 Macrophage cells", "assay": "Viability of macrophages activated by LPS and palmitic acid (LDH Cytotoxicity Assay Kit)", "assay_type": "cell-based, mouse", "details": "ZEP3 50 μg/ml, LPS 100 ng/ml; for OD (LDH Cytotoxicity Assay): 24 hours", "experimental": "Macrophages originating from C57BL/6 mice were cultured at a density of 200,000 cells/mL in a 24-well plate (500 μl well) and incubated at 37° C. and 5% CO2 overnight. Following the overnight incubation, media were replaced with fresh media containing 100 ng/mL LPS, followed by three hours incubation. The LPS-containing media in the treatment groups were then replaced with fresh media containing ZEP3 at concentration of 50 μg/ml, followed by one-hour incubation. Next, palmitic acid (100, 200 or 400 μM) was added to the appropriate wells. The plates were incubated for additional 24 hours and the viability of cells was estimated using an LDH Cytotoxicity Assay Kit."}, "TNF alpha": {"tested_on": "TNF alpha", "assay": "ZEP3 pretreatment, expression of TNF alpha by LPS treated macrophages", "assay_type": "cell-based, mouse", "details": "ZEP3 50 μg/mL 1 hour before LPS 100 ng/mL", "experimental": "Macrophages originating from C57BL/6 mice were cultured at a density of 200,000 cells/mL in a 24-well plate (500 μl wells) and placed in a 37° C., 5% CO2 Incubator overnight. Following the overnight incubation media were replaced with fresh media containing 50 μg/ml ZEP3. Following 1-hour incubation 100 ng/mL LPS was added to the appropriate wells, the plates were incubated for additional 24 hours, then the amount of TNF alpha in each well was measured."}, "IL-6": {"tested_on": "IL-6", "assay": "IL-6 in corneal epithelial cell culture dry eye disease model", "assay_type": "cell-based, human", "experimental": "(§1) The anti-inflammatory effect of the peptides in experimental corneal inflammation was tested in a cell culture model using various inflammasome inducers such as LPS, 4-HNE, Nigericin and others to model a dry-eye-disease (DED). Using a dose-response model, human primary corneal epithelial cells were pre-treated with the peptides followed by exposure to DED inducers. Expression of IL-6 was measured as well as cell viability, ROS production.\n(§2) Human primary Corneal Epithelial Cells (PCS-700-010; HCECs) were treated with ZEP3 at concentrations ranging from 3 to 12 μg/ml for 2 hours then exposed to LPS, 4-HNE or Nigericin for 24 hours. Following incubation, the levels of the pro-inflammatory cytokine IL-6, cell viability and reactive oxygen species (ROS) production in the cell cultures were measured."}, "[1]": {"tested_on": "Reactive Oxygen Species (ROS)", "assay": "ROS production in corneal epithelial cell culture dry eye disease model", "assay_type": "cell-based, human", "experimental": "as §1, §2"}, "[2]": {"tested_on": "Human primary Corneal Epithelial Cells", "assay": "Cell viability (LDH assay) in corneal epithelial cell culture dry eye disease model", "assay_type": "cell-based", "experimental": "as §1, §2"}, "IFNγ": {"tested_on": "IFNγ", "assay": "IFN-γ production in LPS-stimulated human PBMCs", "assay_type": "cell-based", "details": "ZEP3 40, 100 and 150 μg/ml, 1 hr pre-treatment, LPS 24 hours; 4 donors (FIG. 9)", "experimental": "(§3) The effect of the peptide ZEP3 (SEQ ID NO: 1) on cytokine production was evaluated in an in vitro human model of inflammation. Human Peripheral Blood Mononuclear Cells (PBMCs) were stimulated using Lipopolysaccharide (LPS) to produce cytokines.\n(§4) Method: Briefly, cryopreserved human PBMCs of four healthy non-smokers, not on any corticosteroids or other inflammatory drugs, were grown in RPMI 1640 with 10% heat inactivated fetal bovine serum (FBS), 100 U/ml penicillin and 100 μg/mL streptomycin (complete growth medium, CGM).\n(§5) Human PBMCs were thawed and plated for all groups (1-6, Table 7), and rested for 1 hour before treatment. […] 24 hours post LPS addition, Almar Blue fluorescent at 585 nm (correlating with cell viability), is measured and supernatant is collected for cytokine determination. […]\n(§6) Detailed method: cells were thawed according to manufacturer's instructions, washed in CGM and assessed for viability using trypan blue staining. […] At 24 hours post LPS stimulation, plates were read for assessment of cell viability and cell culture supernatants were harvested and stored at −80° C. for cytokine analysis. […] Cytokine production and percentage of sample stimulation vs. the average of the stimulation control were calculated."}, "IL-10": {"tested_on": "IL-10", "assay": "IL-10 production in LPS-stimulated human PBMCs", "assay_type": "cell-based", "details": "ZEP3 40, 100 and 150 μg/ml, 1 hr pre-treatment, LPS 24 hours; 4 donors", "experimental": "as §3, §4, §5, §6"}, "IL-1B": {"tested_on": "IL-1B", "assay": "IL-1B production in LPS-stimulated human PBMCs", "assay_type": "cell-based", "details": "ZEP3 40, 100 and 150 μg/ml, 1 hr pre-treatment, LPS 24 hours; 4 donors", "experimental": "as §3, §4, §5, §6"}, "RANTES": {"tested_on": "RANTES", "assay": "RANTES production in LPS-stimulated human PBMCs", "assay_type": "cell-based", "details": "ZEP3 40, 100 and 150 μg/ml, 1 hr pre-treatment, LPS 24 hours; 4 donors (FIG. 12)", "experimental": "as §3, §4, §5, §6"}},
  "note": "Where a SMILES comes first, the peptide text is derived from it. [ ]: non-standard residue; d: D form. The star is where a group is joined. pGlu = O=C1CC[C@@H](C(=O)O)N1; Octanoyl = CCCCCCCC(=O)*",
  "data": [
    {"smiles": "CCCCCCCC(=O)NCCCC[C@H](NC(=O)[C@H](Cc1c[nH]c2ccccc12)NC(=O)[C@H](CC(N)=O)NC(=O)[C@@H]1CCC(=O)N1)C(=O)O", "note": "[ZEP3, pGlu-Asn-Trp-Lys(Octanoyl)-OH] ([pGlu]NWK(Octanoyl)-OH)", "values": [
      {"measurement": "OD (LDH Cytotoxicity Assay)", "setting": "B6 Macrophage cells; palmitic acid 100 μM", "result": 1.437},
      {"measurement": "OD (LDH Cytotoxicity Assay)", "setting": "B6 Macrophage cells; palmitic acid 200 μM", "result": 1.496},
      {"measurement": "OD (LDH Cytotoxicity Assay)", "setting": "B6 Macrophage cells; palmitic acid 400 μM", "result": 1.6095},
      {"measurement": "effect on the viability of inflammation-induced macrophage cells", "setting": "B6 Macrophage cells; palmitic acid 100, 200 or 400 μM", "result": "no significant effect"},
      {"measurement": "TNF alpha", "setting": "TNF alpha; 24 hours", "result": 101.2, "unit": "pg/mL"},
      {"measurement": "% reduction of TNF alpha", "setting": "TNF alpha; vs LPS control", "result": 46.7, "unit": "%"},
      {"measurement": "level of IL-6 in cell culture", "setting": "IL-6; HCECs pre-treated with ZEP3 (3 to 12 μg/ml, 2 hours), exposed to 4-HNE for 24 hr (FIG. 7)", "result": "38.1 ± 1.37", "unit": "pg/mL"},
      {"measurement": "reduction of IL-6 level", "setting": "IL-6; ZEP3 treated vs untreated cell culture, 4-HNE 24 hr (FIG. 7)", "result": 27.4, "unit": "%"},
      {"measurement": "level of ROS in cell culture", "setting": "[1]; HCECs pre-treated with ZEP3, exposed to 4-HNE for 24 hours, DCFDA kit (FIG. 8)", "result": "13000±800", "unit": "RFU"},
      {"measurement": "reduction of ROS level", "setting": "[1]; ZEP3 treated vs untreated cell culture, 4-HNE 24 hours (FIG. 8)", "result": 51.9, "unit": "%"},
      {"measurement": "cell death density", "setting": "[2]; HCECs treated with ZEP3 and exposed to inflammation inducer, LDH assay (FIG. 6)", "result": "3.625±1.092", "unit": "%"},
      {"measurement": "reduction of cell death density", "setting": "[2]; ZEP3 treated vs untreated cell culture (FIG. 6)", "result": 82.8, "unit": "%"},
      {"measurement": "interferon gamma (IFNγ) production", "setting": "IFNγ", "result": "significant reduction"},
      {"measurement": "IL-10 production (FIG. 10)", "setting": "IL-10", "result": "significant reduction"},
      {"measurement": "IL-1B production", "setting": "IL-1B", "result": "significant reduction"},
      {"measurement": "RANTES production", "setting": "RANTES", "result": "significant reduction"}
    ]}
  ]
}
